Data reported in publication PMC2228596 (The Journal of General Physiology, 1980).
Read-outs that look alike come from different tables or passages of the source.

What was measured:
[1] = system: Na+ channels in rat brain synaptosomes; assay type: cell-based
[2] = system: voltage-dependent Na+ channels in excitable membranes; conditions: cited from earlier work; for Opening of Na+ channels: Catterall; for Effect on kinetics of activation and inactivation of Na+ channels: electrophysiology, Khodorov et al.; for Effect on kinetics of activation and inactivation of Na+ channels / Use dependence of activator effects: ref Ulbricht, 1969; for Use dependence of activator effects: intact nerve preparations, Albuquerque et al., Bartels-Bernal et al., 1977, Revenko
[3] = system: Na+ channels in rat brain synaptosomes; test: Synaptosome membrane potential; assay type: cell-based
[4] = system: Na+ channels, neuroblastoma cells; conditions: ref Catterall (1977 b); cited from earlier work
[5] = system: Na+ channels in synaptosomes; conditions: cited from earlier work; for Synaptosome depolarization: ref VER: Goldring and Blaustein, BTX: Krueger and Blaustein, 1978
[6] = ref Narahashi and Seyama, 1974, 1977 b
[7] = ref Albuquerque et al., 1973, 1975

Compound: anthopleurin-A [AxTX]
- Potentiation of BTX by AxTX ([1]; 1 μM AxTX): potentiated the effects of BTX without itself greatly increasing Na + uptake
- Potentiation of VER by AxTX ([1]; 1 μM AxTX): potentiated the effects of VER
- Effect of AxTX alone on Na+ uptake ([1]; absence of VER or BTX): small increase in Na + uptake

Compound: CCN1C[C@]2(COC)[C@H](O)C[C@H](OC)[C@@]34[C@@H]5C[C@@]6(O)[C@H](OC(=O)c7ccccc7)[C@@H]5[C@@](OC(C)=O)([C@@H]([C@H](OC)[C@H]23)[C@@H]14)[C@@H](O)[C@@H]6OC [aconitine]
- Opening of Na+ channels [2, 6]: open Na + channels

Compound: COc1ccc(C(=O)O[C@H]2CC[C@@]3(C)[C@@H]4CC[C@H]5[C@]6(O)C[C@H](O)[C@@]7(O)[C@@H](CN8C[C@@H](C)CC[C@H]8[C@@]7(C)O)[C@]6(O)C[C@@]53O[C@]24O)cc1OC [VER, veratridine]
- Time to complete depolarizing effect ([3]; data not shown): up to 5 min
- Depolarization relative to maximally effective BTX or 150 mM K+ (ΔF = 100%) ([3]; highest concentration tested, 300 μM VER, no LqTX): 50-60%
- Maximal effect of VER on Na+ uptake with LqTX ([1]; 0.1 μM LqTX): increased in the presence of LqTX to the same level observed in the presence of 10 ~M BTX
- Na+ uptake at maximally effective VER with AxTX ([1]; 1 μM AxTX): increased in the presence of AxTX
- Preference of binding to open over nonopen states [4]: ~ 600 times
- Effect on kinetics of activation and inactivation of Na+ channels [2]; 1975: alter the kinetic properties of the rapid, voltage-sensitive activation and inactivation of Na + channels
- Use dependence of activator effects [2]; 1973: use dependent
- Opening of Na+ channels [2, 7]: open TTX-sensitive Na + channels
- Release of neurotransmitters from synaptosomes ([5]; ref Blaustein, 1975, Cotman et al., 1976): VER-stimu- lated release of neurotransmitters
- Ca2+ uptake into synaptosomes ([5]; ref Blaustein, 1975, Nachshen and Blaustein, 1979): VER-stimulated Ca2+ uptake
- Uptake of Na+ into synaptosomes ([5]; ref Li and White (1977), Matthews et al. (1979)): VER-stimulated, TTX-sensitive uptake of Na + into synaptosomes
- Synaptosome depolarization [5]; 1975: induced synaptosome depolarization

Compound: Grayanotoxin
- Opening of Na+ channels [2, 6]: open Na + channels

Compound: COC(=O)[C@@H]1[C@H]2C[C@H]3c4[nH]c5ccccc5c4CCN3C[C@@H]2CC[C@@H]1O [yohimbine]
- Antagonism of Na+ channel openers ([2]; ref Huang et al., 1978): competitive antagonist of these agents

Compound: batrachotoxin [BTX]
- Fluorescence increase in low-Na medium ([3]; 30 μM BTX, 140 Ch + 5 Na + 5 K, data not shown): same amount as did increasing the external K concentration from 5 to 8 mM
- Time to complete depolarizing effect ([3]; data not shown): up to 5 min
- Maximal depolarization, ΔF (% of 150 mM K+) ([3]; maximally effective concentration of BTX, no LqTX): 100%
- Effect of BTX >0.3 μM in presence of LqTX ([1]; 0.1 μM LqTX): slightly inhibitory
- BTX-stimulated 22Na influx during the second s of incubation ([1]; 10 μM BTX): slightly less than that during the first s
- Na+ concentration up to which BTX-stimulated uptake is proportional to Na+ ([1]; 10 μM BTX, 2 s uptake, 2.5-30 mM Na+): up to 5 mM
- Na+ uptake rate ([1]; 10 μM BTX, 5 min at 30°C, 5 mM Na+): ~ 1 nmol s-1 mg-1
- Maximal Na+ uptake by BTX without vs with LqTX ([1]; each of three experiments): slightly greater in the absence than in the presence of LqTX
- Time to isotopic equilibrium ([1]; presence of 10 μM BTX, 30°C): about 5 s
- Effect on kinetics of activation and inactivation of Na+ channels [2]; 1975: alter the kinetic properties of the rapid, voltage-sensitive activation and inactivation of Na + channels
- Use dependence of activator effects [2]; 1973: use dependent
- Opening of Na+ channels [2, 7]: open TTX-sensitive Na + channels
- Synaptosome depolarization [5]; 1975: induced synaptosome depolarization
